Results on 19 compounds are retold here after ChEMBL document CHEMBL4825780 (ACS Med Chem Lett, 2021).

The source made the active and inactive calls.

One data set concerns the target CDK8/Cyclin C (Homo sapiens, UniProt P49336). The data set is described as follows: Inhibition of tracer 236 binding to recombinant human His-tagged full length CDK8/Cyclin C expressed in baculovirus expression system by Lanthascreen assay. A general note: TR-FRET usually uses a lanthanide donor and a delayed reading to cut background.
A short description of data set [1]: Metabolic stability in mouse hepatocytes assessed as half life. In kind it is ADME, cell-based, Hepatocyte.
Data set [2] is described as follows: Metabolic stability in mouse hepatocytes assessed as intrinsic clearance. In kind it is ADME, cell-based, Hepatocyte.
Data set [3] concerns the target Cyclin-C/Cyclin-dependent kinase 19 (Homo sapiens, UniProt Q9BWU1). In words: Inhibition of tracer 236 binding to recombinant human GST/His-tagged CDK11 (1 to 502 residues)/Cyclin C( 1 to 283 residues) expressed in insect cells by Lanthascreen assay.
Data set [4] addresses T1, Serine/threonine-protein kinase 16 (Homo sapiens, UniProt O75716). The data set is described as follows: Inhibition of human wild type partial length STK16 (G11 to I305) expressed in bacterial expression system by Kinomescan method.
Data set [5] concerns T2, Receptor-type tyrosine-protein kinase FLT3 (Homo sapiens), P36888 [D835V].
T2 sequence (whole entry): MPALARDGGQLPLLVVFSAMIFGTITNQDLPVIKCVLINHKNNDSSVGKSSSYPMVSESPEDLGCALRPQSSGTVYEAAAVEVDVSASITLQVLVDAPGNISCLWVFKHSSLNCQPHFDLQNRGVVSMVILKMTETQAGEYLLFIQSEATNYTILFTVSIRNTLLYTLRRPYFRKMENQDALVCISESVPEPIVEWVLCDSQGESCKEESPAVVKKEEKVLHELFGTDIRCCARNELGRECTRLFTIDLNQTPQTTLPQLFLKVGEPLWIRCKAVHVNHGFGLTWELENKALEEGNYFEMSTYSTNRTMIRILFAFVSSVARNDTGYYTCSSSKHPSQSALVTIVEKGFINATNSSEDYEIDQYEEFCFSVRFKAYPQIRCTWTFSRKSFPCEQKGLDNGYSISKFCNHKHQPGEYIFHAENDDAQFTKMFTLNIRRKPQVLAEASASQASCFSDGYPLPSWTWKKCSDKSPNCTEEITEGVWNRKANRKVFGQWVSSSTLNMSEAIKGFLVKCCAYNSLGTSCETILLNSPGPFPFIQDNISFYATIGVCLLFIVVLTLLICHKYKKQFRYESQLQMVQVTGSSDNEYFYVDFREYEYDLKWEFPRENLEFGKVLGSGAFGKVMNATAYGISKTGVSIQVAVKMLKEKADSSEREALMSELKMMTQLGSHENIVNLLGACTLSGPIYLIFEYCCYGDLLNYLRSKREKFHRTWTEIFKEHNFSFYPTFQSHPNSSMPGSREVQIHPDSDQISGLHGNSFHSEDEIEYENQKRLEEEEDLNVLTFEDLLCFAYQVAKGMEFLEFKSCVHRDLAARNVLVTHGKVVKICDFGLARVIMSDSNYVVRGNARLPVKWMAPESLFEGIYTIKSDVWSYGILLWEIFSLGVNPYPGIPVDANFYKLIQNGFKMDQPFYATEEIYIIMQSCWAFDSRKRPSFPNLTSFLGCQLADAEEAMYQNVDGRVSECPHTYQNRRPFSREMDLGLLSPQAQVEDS
The data set is described as follows: Inhibition of human partial length FLT3 […] mutant (V592 to Y969 residues) expressed in mammalian expression system at 1 uM measured by Kinomescan method.

A short description of data set [6]: AUC in C57Bl/6 mouse at 10 mg/kg, po. Conditions: in vivo. On the set-up: dose 10 mg/kg. In kind it is ADME, organism-based.
Data set [7] deals with T1, Serine/threonine-protein kinase 16. The data set is described as follows: Inhibition of human wild type partial length STK16 (G11 to I305 residues) expressed in bacterial expression system at 1 uM measured by Kinomescan method.
Data set [8] can be described thus: Oral bioavailability in C57Bl/6 mouse at 10 mg/kg. In kind it is ADME, organism-based. Conditions: in vivo.
Data set [9] in a line: Cmax in C57Bl/6 mouse at 10 mg/kg, po. The data set is classed as ADME, organism-based. Conditions: in vivo. Set-up: route oral, dose 10 mg/kg.
For data set [10], the target named is Cyclin-dependent kinase 8 (Homo sapiens, UniProt P49336).
Chain of Cyclin-dependent kinase 8 (P49336 whole entry): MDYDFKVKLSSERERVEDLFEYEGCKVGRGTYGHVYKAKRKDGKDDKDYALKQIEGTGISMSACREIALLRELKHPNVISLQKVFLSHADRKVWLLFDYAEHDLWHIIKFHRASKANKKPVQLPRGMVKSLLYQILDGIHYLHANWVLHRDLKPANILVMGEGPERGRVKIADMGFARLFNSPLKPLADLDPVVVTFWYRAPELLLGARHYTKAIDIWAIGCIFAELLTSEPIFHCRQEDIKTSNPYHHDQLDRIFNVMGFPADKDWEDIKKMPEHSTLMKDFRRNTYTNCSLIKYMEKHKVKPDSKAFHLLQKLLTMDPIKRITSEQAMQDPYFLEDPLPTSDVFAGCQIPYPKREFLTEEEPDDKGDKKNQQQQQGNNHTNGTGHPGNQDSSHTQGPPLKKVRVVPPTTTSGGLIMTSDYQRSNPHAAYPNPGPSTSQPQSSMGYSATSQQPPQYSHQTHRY
Description: Inhibition of human CDK8 in human Jurkat cells assessed as inhibition of STAT1 phosphorylation at S727 residue measured after 24 hrs by Western blot assay
The nature of data set [11]: Clearance in C57Bl/6 mouse at 10 mg/kg, po or 2 mg/kg, iv. The data set is classed as ADME, organism-based. To be noted: in vivo.
Data set [12] in a line: Half life in C57Bl/6 mouse at 10 mg/kg, po. In kind it is ADME, organism-based. Conditions: in vivo.
Data set [13] in a line: Volume of distribution at steady state in C57Bl/6 mouse at 10 mg/kg, po or 2 mg/kg, iv. Conditions: in vivo, read-out: Vdss. The data set is classed as ADME, organism-based.

Chain of CDK8/Cyclin C (P49336 whole entry): as above
Chain of CDK8/Cyclin C (P24863 whole entry, further chain): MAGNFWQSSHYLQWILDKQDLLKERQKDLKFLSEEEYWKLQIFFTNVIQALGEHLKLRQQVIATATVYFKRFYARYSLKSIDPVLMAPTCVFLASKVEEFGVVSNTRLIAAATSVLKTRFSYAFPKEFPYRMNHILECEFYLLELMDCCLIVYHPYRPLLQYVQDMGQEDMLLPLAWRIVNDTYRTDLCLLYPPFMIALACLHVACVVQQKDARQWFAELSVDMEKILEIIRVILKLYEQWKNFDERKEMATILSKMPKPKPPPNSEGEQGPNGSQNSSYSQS
Chain of Cyclin-C/Cyclin-dependent kinase 19 (Q9BWU1 whole entry, the tested form may be a part): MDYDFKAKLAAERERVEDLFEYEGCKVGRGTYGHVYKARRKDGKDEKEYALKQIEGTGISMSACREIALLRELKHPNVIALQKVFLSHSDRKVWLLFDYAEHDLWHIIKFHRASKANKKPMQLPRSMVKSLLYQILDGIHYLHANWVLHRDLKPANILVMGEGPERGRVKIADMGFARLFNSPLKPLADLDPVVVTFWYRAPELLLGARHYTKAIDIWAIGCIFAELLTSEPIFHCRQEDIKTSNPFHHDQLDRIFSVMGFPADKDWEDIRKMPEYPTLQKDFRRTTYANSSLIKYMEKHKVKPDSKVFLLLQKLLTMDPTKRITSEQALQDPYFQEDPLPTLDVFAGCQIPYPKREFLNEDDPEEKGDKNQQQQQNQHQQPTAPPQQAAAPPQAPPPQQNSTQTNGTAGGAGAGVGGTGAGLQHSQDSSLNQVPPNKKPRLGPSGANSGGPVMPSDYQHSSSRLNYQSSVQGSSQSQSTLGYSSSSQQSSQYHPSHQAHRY
Chain of Cyclin-C/Cyclin-dependent kinase 19 (P24863 whole entry, further chain, the tested form may be a part): as the sequence (P24863 whole entry, further chain) above
T1 sequence (O75716 whole entry): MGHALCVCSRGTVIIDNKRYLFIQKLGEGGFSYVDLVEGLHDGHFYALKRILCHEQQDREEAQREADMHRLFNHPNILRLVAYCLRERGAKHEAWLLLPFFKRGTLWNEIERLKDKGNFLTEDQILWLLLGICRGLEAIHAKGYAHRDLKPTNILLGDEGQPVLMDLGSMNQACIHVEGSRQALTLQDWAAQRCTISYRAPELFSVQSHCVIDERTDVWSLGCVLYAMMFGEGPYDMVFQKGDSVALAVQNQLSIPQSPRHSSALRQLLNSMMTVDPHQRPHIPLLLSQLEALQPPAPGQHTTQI

In general, IC50 refers to the concentration at which inhibition is half-maximal. Usually half-life stands for the time needed for the level to fall by half in the phase considered. Consider `Cn1ncc2cc(-c3cnc4[nH]ncc4c3N3CCC4(CCNC4=O)CC3)ccc21`, for which the IC50 on CDK8/Cyclin C was 178 nM; in data set [3] it was 214 nM. In addition, the half-life in data set [1] was 11 min. Moreover, the “intrinsic clearance (CLint)” value in data set [2] came to 59 µL/min/mg.

In the case of `Cn1ncc2cc(-c3cnc4[nH]ccc4c3N3CCC4(CCNC4=O)C3)ccc21` (stereo not drawn), the IC50 was found to be 55 nM at CDK8/Cyclin C and 29 nM in data set [3].

In the case of `O=C1NCCC12CCN(c1c(-c3ccc4ncsc4c3)cnc3[nH]ccc13)CC2`, the IC50 at CDK8/Cyclin C is 25 nM; in data set [3], 80 nM.

As for `Cn1ncc2cc(-c3cnc4[nH]ccc4c3N3CCC4(CC3)CNC4=O)ccc21`, the half-inhibitory concentration (IC50) (on CDK8/Cyclin C; in [3]) was 6 nM throughout.

On to `O=C1NCCC12CCN(c1c(-c3ccc4ncnn4c3)cnc3[nH]ccc13)CC2`, for which the concentration for half-maximal inhibition (IC50) on CDK8/Cyclin C is 274 nM; in data set [3], 1020 nM.

With `O=C1NCCC12CCN(c1c(-c3ccn4ccnc4c3)cnc3[nH]ccc13)CC2`, the IC50 on CDK8/Cyclin C amounted to 76 nM; in [3] it was 68 nM.

In the case of `O=C1NCCC12CCN(c1c(-c3ccc4[nH]cnc4c3)cnc3[nH]ccc13)CC2`, the IC50 on CDK8/Cyclin C amounted to 5 nM; in [3] it was 17 nM.

As to `Cn1cnc2cc(-c3cnc4[nH]ccc4c3N3CCC4(CCNC4=O)CC3)ccc21`, the figures for the IC50 (on CDK8/Cyclin C; in data set [3]) were 32 nM and 50 nM, respectively.

As to `Cn1ncc2cc(-c3cnc4[nH]ccc4c3N3CCC4(CCNC4=O)CC3)ccc21`, in [1], the half-life stood at 9 min. Besides, the “intrinsic clearance (CLint)” value in data set [2] was determined as 78 µL/min/mg.

On to `Cn1ncc2cc(-c3cnc4[nH]ccc4c3N3CCC4(CCCNC4=O)CC3)ccc21`, for which the IC50 in data set [3] was determined as 3 nM.

Consider `Cn1ncc2cc(-c3cnc4[nH]ccc4c3N3CCC4(CC3)CNC(=O)O4)ccc21`, for which the concentration for half-maximal inhibition (IC50) at CDK8/Cyclin C came to 7 nM; in data set [3], 6 nM.

`Cn1ncc2cc(-c3cnc4[nH]ccc4c3N3CC4(CNC(=O)C4)C3)ccc21`: the half-inhibitory concentration (IC50) on CDK8/Cyclin C is 916 nM; in data set [3] it was 698 nM.

For the compound `Cn1ncc2cc(-c3cnc4[nH]cnc4c3N3CCC4(CCNC4=O)CC3)ccc21`, the values for the IC50 (at CDK8/Cyclin C; in data set [3]) were 10 nM and 5 nM, respectively. Further, the half-life in data set [1] was determined as 5 min. Besides, in data set [2], the “intrinsic clearance (CLint)” value was found to be 158 µL/min/mg.

Turning to `Cn1ncc2cc(-c3cnc4[nH]ccc4c3N3CCC4(CC3)NC(=O)NC4=O)ccc21`, the IC50 in [3] came to 2 nM.

Consider `Cn1ncc2cc(-c3cnc4[nH]ccc4c3N3CC4(CCNC4=O)C3)ccc21`, for which the values for the IC50 (on CDK8/Cyclin C; in data set [3]) were 538 nM and 426 nM, respectively.

A word on the AUC: it is the area under the concentration-time curve, a measure of exposure. High values mean more exposure, low ones less exposure. The bioavailability is the share of a dose that reaches the circulation, judged against a reference dose that is usually intravenous. What is called Cmax is the peak of the concentration-time curve. Regarding `Cn1ncc2cc(-c3cnc4[nH]nc(Cl)c4c3N3CCC4(CCNC4=O)CC3)ccc21`, the half-inhibitory concentration (IC50) on CDK8/Cyclin C is 1 nM; in data set [4], 107 nM; in data set [10] it was 2 nM; in data set [3], 2 nM. The inhibition result in [5] and in data set [7] was “Active” in each case. The compound also showed an area under the curve (AUC) in data set [6] of 864 ng·h/mL. Further, the half-life in data set [1] was 46 min; in [12], 78 min. The compound further showed a bioavailability in data set [8] of 8%. In data set [9], the highest level (Cmax) was 104 ng/mL. This compound returned a clearance in [11] of 17 mL/min/kg. Also, the “intrinsic clearance (CLint)” value in data set [2] turned out to be 15 µL/min/mg. Besides, the Vd in data set [13] amounted to 0.8 L/kg.

Turning to `Cn1ncc2cc(-c3cnc4[nH]cc(Cl)c4c3N3CCC4(CCNC4=O)CC3)ccc21`, the half-inhibitory concentration (IC50) on CDK8/Cyclin C came to 2 nM; in data set [3], 10 nM. Further, the half-life in [1] came out at 11 min. In addition, in [2], the “intrinsic clearance (CLint)” value worked out at 64 µL/min/mg.

On to `O=C1NCCC12CCN(c1c(-c3ccc4scnc4c3)cnc3[nH]ccc13)CC2`, for which the IC50 at CDK8/Cyclin C worked out at 6 nM; in data set [3], 14 nM.

Turning to `Cc1n[nH]c2ncc(C(=O)N3CCC[C@H]3c3ccc(Cl)cc3)cc12`, the midpoint of inhibition in data set [10], the IC50, lay at 3 nM.
